Data: patent US20070059260A1, “Benzyl-1,3-thiazolidine-2,4-dione compounds for promoting and/or inducing and/or stimulating the pigmentation of keratin materials and/or for limiting their depigmentation and/or whitening” (L'OREAL, priority 2005, published 2007)

Key:
[1] = molecular target: T1, Type-1 15-PGDH (Homo sapiens, UniProt P15428); assay: Test on type-1 15-PGDH (spectrophotometric, NAD/PGE2, 340 nm); type: biochemical; details: concentration reducing enzymatic activity of 15-PGDH by 50%; 37° C., pH 7.4 Tris buffer, 1.5 mM β-NAD, 50 μM Prostaglandin E2; read-out: IC50dh or % inhibition at 100 μM
T1 construct: made in house
T1 sequence (P15428 1-266): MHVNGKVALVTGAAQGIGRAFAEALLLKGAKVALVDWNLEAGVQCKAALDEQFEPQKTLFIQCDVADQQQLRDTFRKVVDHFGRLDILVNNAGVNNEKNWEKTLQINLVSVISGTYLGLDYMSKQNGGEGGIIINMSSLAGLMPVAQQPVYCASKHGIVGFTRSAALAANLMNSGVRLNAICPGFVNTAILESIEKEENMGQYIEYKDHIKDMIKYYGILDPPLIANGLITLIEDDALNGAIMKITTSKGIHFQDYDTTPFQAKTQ
Protocol: The enzyme 15-PGDH is obtained as described in FR 02/05067 filed in the name of L'Oreal, as a suspension in a medium adjusted to a concentration of 0.3 mg/mL and then blocked at −80° C. For the purposes of the test, this suspension is thawed and stored in ice.
In parallel, a 100 mM, pH 7.4 Tris buffer containing 0.1 mM of dithiothreitol (D5545, Sigma-Aldrich, L'isle D'Abeau Chesne, BP 701, 38297, Saint Quentin Fallavier), 1.5 mM of β-NAD (N6522, Sigma-Aldrich, L'isle D'Abeau Chesne, BP 701, 38297, Saint Quentin Fallavier), and 50 μM of Prostaglandin E2 (P4172, Sigma-Aldrich, L'isle D'Abeau Chesne, BP 701, 38297, Saint Quentin Fallavier) is prepared.
0.965 ml of this buffer (brought to 37° C. beforehand) is introduced into the cuvette of a spectrophotometer (Perkin-Elmer, Lambda 2) thermostatically maintained at 37° C., the measuring wavelength of which is set at 340 nm. 0.035 mL of enzymatic suspension at 37° C. is introduced into the cuvette concomitantly with the recording (corresponding to an increase in the optical density at 340 nm). The maximum reaction rate is recorded.
The test values (containing the compounds of formula (I)) are compared with the control value (without compound of formula (I)); the results indicated represent either the percentage inhibition of the enzymatic activity of 15-PGDH for a given concentration of compound of formula (I), or the concentration at which the compound of formula (I) reduces the enzymatic activity of 15-PGDH by 50%, namely IC50dh.

| Structure (SMILES) | IC50 [1] | melting point |
| --- | --- | --- |
| CC(C)(C)c1ccc(Oc2ccccc2CC2SC(=O)NC2=O)cc1 (centres unmarked) [Compound 4, 5-[2-(4-tert-Butylphenoxy)benzyl]-1,3-thiazolidine-2,4-dione] | 400 nM |  |
| O=C1NC(=O)C(Cc2ccccc2Oc2ccc(Cl)cc2Cl)S1 (centres unmarked) [Compound 2] | 1210 nM |  |
| O=C1NC(=O)C(Cc2ccccc2Oc2ccccc2)S1 (centres unmarked) [Compound 3] | 2750 nM |  |
| O=C1NC(=O)C(Cc2ccccc2Oc2ccccc2)S1 (centres unmarked) [Example 1, 5-(2-phenoxybenzyl)-1,3-thiazolidine-2,4-dione] |  | 84 to 85 °C |
| CC(C)(C)c1ccc(Oc2cccc(CC3SC(=O)NC3=O)c2)cc1 (centres unmarked) [Compound 5] | 580 nM |  |
